From patent publication US10316049B2, “Tank-binding kinase inhibitor compounds” (Gilead Sciences, Inc., priority 2015, dated 2019)

How the values were obtained:
TBK1 = target: T1, TBK1 (Homo sapiens, UniProt Q9UHD2); assay: TR-FRET enzymatic activity assay, TBK1; format: biochemical; note: full length recombinant TBK1 at 2.5 nM
T1 construct: TBK1 and IKKε were expressed and purified as full length recombinant proteins; made in house
T1 sequence (Q9UHD2 1-729): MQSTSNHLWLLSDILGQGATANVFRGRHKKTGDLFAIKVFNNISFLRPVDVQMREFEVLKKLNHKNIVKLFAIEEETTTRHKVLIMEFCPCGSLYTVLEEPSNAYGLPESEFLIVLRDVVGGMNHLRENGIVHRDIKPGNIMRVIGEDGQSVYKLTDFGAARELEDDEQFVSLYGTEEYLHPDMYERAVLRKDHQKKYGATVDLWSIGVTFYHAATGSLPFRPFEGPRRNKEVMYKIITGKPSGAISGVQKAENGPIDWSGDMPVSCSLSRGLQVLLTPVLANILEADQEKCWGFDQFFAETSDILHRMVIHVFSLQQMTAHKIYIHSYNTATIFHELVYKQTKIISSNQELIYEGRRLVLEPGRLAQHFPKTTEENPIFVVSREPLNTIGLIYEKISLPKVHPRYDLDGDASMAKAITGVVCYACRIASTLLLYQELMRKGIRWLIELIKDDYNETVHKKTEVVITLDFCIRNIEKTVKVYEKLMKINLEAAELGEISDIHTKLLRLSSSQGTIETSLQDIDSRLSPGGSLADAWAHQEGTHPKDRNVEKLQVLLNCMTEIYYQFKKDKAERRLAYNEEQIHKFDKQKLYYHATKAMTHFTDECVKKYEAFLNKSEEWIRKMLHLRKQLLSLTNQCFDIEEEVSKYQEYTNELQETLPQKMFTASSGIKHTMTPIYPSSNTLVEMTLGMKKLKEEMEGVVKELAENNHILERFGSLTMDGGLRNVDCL
In short: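 Full-length recombinant enzymes phosphorylated a biotinylated Ser/Thr peptide for 240 min at 25 °C, stopped with EDTA. Phosphopeptide detected by TR-FRET (streptavidin XL665, Eu-cryptate anti-phospho antibody). IC50 from four-parameter fits normalized to 1 μM staurosporine and DMSO controls, as geometric means of at least four determinations.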

IKKε = target: T2, IKKε (Homo sapiens, UniProt Q14164); assay: TR-FRET enzymatic activity assay, IKKε; format: biochemical; conditions: read-out: IKKϵ IC50; note: full length recombinant IKKε at 0.3 nM
T2 construct: TBK1 and IKKε were expressed and purified as full length recombinant proteins; made in house
T2 sequence (Q14164 1-716): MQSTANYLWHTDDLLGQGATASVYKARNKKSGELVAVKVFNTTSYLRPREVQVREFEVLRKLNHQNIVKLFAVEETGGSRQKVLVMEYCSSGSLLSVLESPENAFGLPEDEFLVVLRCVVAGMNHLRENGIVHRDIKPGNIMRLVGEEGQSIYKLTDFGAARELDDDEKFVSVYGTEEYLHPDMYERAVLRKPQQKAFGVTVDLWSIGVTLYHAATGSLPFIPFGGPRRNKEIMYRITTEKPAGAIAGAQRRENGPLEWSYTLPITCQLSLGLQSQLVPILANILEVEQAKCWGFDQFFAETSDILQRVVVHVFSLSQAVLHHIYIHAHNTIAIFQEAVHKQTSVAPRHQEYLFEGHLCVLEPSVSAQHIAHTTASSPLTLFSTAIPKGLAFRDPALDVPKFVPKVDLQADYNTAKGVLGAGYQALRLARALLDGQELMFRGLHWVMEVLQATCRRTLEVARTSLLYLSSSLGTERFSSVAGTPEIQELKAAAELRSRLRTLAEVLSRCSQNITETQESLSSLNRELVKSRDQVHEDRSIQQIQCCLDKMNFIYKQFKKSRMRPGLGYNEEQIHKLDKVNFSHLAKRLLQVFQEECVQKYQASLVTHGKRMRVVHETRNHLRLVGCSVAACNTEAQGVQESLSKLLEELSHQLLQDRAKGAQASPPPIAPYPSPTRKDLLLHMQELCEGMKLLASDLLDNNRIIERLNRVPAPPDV
In short: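 Full-length recombinant IKKε phosphorylated a biotinylated Ser/Thr peptide for 240 min at 25 °C; EDTA stop. Phospho-peptide detected by TR-FRET with streptavidin-XL665 (125 nM) and Eu-cryptate anti-phospho antibody. Normalised to staurosporine and DMSO controls; IC50 from four-parameter fit, geometric mean of ≥4 runs.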

| SMILES | IC50 (TBK1) [nM] | IC50 (IKKε) [nM] |
| --- | --- | --- |
| N#Cc1cc(-c2ccnc(NC(=O)C3C4CC3C4C(N)=O)c2)ccc1OC1CCOCC1 (stereo not shown) [Example 56, N-(4-(3-cyano-4-((tetrahydro-2H-pyran-4-yl)oxy)phenyl)pyridin-2-yl)bicyclo[1.1.1]pentane-2,4-dicarboxamide] | > 1000 | 444 |
| N#Cc1cc(-c2ccnc(NC(=O)C3C[C@@H]3F)c2)ccc1O[C@H]1CCN(C(=O)CO)C[C@H]1F (stereo partly drawn) [Example 57, (1,2-trans)-N-(4-(3-cyano-4-(((3R,4S)-3-fluoro-1-(2-hydroxyacetyl)piperidin-4-yl)oxy)phenyl)pyridin-2-yl)-2-fluorocyclopropane-1-carboxamide] | 17 | 26.2 |
| N#Cc1cc(-c2ccnc(NC(=O)C3CC3(F)F)c2)ccc1O[C@H]1CCN(C(=O)CO)C[C@H]1F (stereo partly drawn) [Example 58, N-(4-(3-cyano-4-(((3R,4S)-3-fluoro-1-(2-hydroxyacetyl)piperidin-4-yl)oxy)phenyl)pyridin-2-yl)-2,2-difluorocyclopropane-1-carboxamide] | 48.6 | 30.1 |
| N#Cc1cc(-c2ccnc(NC(=O)[C@H]3C[C@H]3F)c2)ccc1O[C@H]1CCN(C(=O)CO)C[C@H]1F [Example 59, (1R,2R)—N-(4-(3-cyano-4-(((3R,4S)-3-fluoro-1-(2-hydroxyacetyl)piperidin-4-yl)oxy)phenyl)pyridin-2-yl)-2-fluorocyclopropanecarboxamide] | 33.8 | 39.7 |
| N#Cc1cc(-c2ccnc(NC(=O)[C@H]3C[C@@H]3F)c2)ccc1O[C@H]1CCN(C(=O)CO)C[C@H]1F [Example 60, (1R,2S)—N-(4-(3-cyano-4-(((3R,4S)-3-fluoro-1-(2-hydroxyacetyl)piperidin-4-yl)oxy)phenyl)pyridin-2-yl)-2-fluorocyclopropanecarboxamide] | 15.7 | 46.3 |
| N#Cc1cc(-c2ccnc(NC(=O)[C@@H]3C[C@@H]3F)c2)ccc1O[C@H]1CCN(C(=O)CO)C[C@H]1F [Example 61, (1S,2S)—N-(4-(3-cyano-4-(((3R,4S)-3-fluoro-1-(2-hydroxyacetyl)piperidin-4-yl)oxy)phenyl)pyridin-2-yl)-2-fluorocyclopropanecarboxamide] | 16.4 | 32.2 |
| N#Cc1cc(-c2ccnc(NC(=O)[C@@H]3C[C@H]3F)c2)ccc1O[C@H]1CCN(C(=O)CO)C[C@H]1F [Example 62, (1S,2R)—N-(4-(3-cyano-4-(((3R,4S)-3-fluoro-1-(2-hydroxyacetyl)piperidin-4-yl)oxy)phenyl)pyridin-2-yl)-2-fluorocyclopropanecarboxamide] | 16.7 | 16.2 |
| N#Cc1cc(-c2ccnc(NC(=O)C3(C#N)CC3)c2)ccc1O[C@H]1CCN(C(=O)CO)C[C@H]1F [Example 63, 1-Cyano-N-(4-(3-cyano-4-(((3R,4S)-3-fluoro-1-(2-hydroxyacetyl)piperidin-4-yl)oxy)phenyl)pyridin-2-yl)cyclopropane-1-carboxamide] | > 1000 | > 1000 |
| N#Cc1cc(-c2ccnc(NC(=O)[C@H]3C[C@H]3F)c2)ccc1N1CCCC1 [Example 64, (1R,2R)—N-(4-(3-cyano-4-(pyrrolidin-1-yl)phenyl)pyridin-2-yl)-2-fluorocyclopropane-1-carboxamide] | 85.3 | 578 |
| N#Cc1cc(-c2ccnc(NC(=O)[C@H]3C[C@H]3F)c2)ccc1N1CCC(O)CC1 [Example 65, (1R,2R)—N-(4-(3-cyano-4-(4-hydroxypiperidin-1-yl)phenyl)pyridin-2-yl)-2-fluorocyclopropane-1-carboxamide] | 470 | > 1000 |
| N#Cc1cc(-c2ccnc(NC(=O)C3CC3C(F)(F)F)c2)ccc1O[C@H]1CCN(C(=O)CO)C[C@H]1F (stereo partly drawn) [Example 66, N-(4-(3-Cyano-4-(((3R,4S)-3-fluoro-1-(2-hydroxyacetyl)piperidin-4-yl)oxy)phenyl)pyridin-2-yl)-2-(trifluoromethyl)cyclopropane-1-carboxamide] | 28.3 | 108 |
| N#Cc1cc(-c2ccnc(NC(=O)C3CC3C#N)c2)ccc1O[C@H]1CCN(C(=O)CO)C[C@H]1F (stereo partly drawn) [Example 67, 2-Cyano-N-(4-(3-cyano-4-(((3R,4S)-3-fluoro-1-(2-hydroxyacetyl)piperidin-4-yl)oxy)phenyl)pyridin-2-yl)cyclopropane-1-carboxamide] | 26.1 | 68.4 |
| COCC(=O)N1CC[C@H](Oc2ccc(-c3ccnc(NC(=O)[C@H]4C[C@@H]4F)c3)cc2C#N)[C@H](F)C1 [Example 68, (1,2-trans)-N-(4-(3-Cyano-4-(((3R,4S)-3-fluoro-1-(2-methoxyacetyl)piperidin-4-yl)oxy)phenyl)pyridin-2-yl)-2-fluorocyclopropane-1-carboxamide] | 34.2 | 87.8 |
| CC1(C)C[C@@H]1C(=O)Nc1cc(-c2ccc(O[C@H]3CCN(C(=O)CO)C[C@H]3F)c(C#N)c2)ccn1 [Example 69, (S)—N-(4-(3-Cyano-4-(((3R,4S)-3-fluoro-1-(2-hydroxyacetyl)piperidin-4-yl)oxy)phenyl)pyridin-2-yl)-2,2-dimethylcyclopropane-1-carboxamide] | 43.9 | 133 |
| CC1CC1C(=O)Nc1cc(-c2ccc(O[C@H]3CCN(C(=O)CO)C[C@H]3F)c(C#N)c2)ccn1 (stereo partly drawn) [Example 70, N-(4-(3-Cyano-4-(((3R,4S)-3-fluoro-1-(2-hydroxyacetyl)piperidin-4-yl)oxy)phenyl)pyridin-2-yl)-2-methylcyclopropanecarboxamide] | 8.9 | 26.1 |
| C[C@@H]1C[C@H]1C(=O)Nc1cc(-c2ccc(O[C@H]3CCN(C(=O)CO)C[C@H]3F)c(C#N)c2)ccn1 [Example 72, (1R,2R)—N-(4-(3-cyano-4-(((3R,4S)-3-fluoro-1-(2-hydroxyacetyl)piperidin-4-yl)oxy)phenyl)pyridin-2-yl)-2-methylcyclopropane-1-carboxamide] | 16.5 | 43.7 |
| N#Cc1cc(-c2ccnc(NC(=O)[C@@H]3C[C@@H]3C(=O)O)c2)ccc1O[C@H]1CCN(C(=O)CO)C[C@H]1F [Example 73, (1,2-cis)-2-((4-(3-cyano-4-(((3R,4S)-3-fluoro-1-(2-hydroxyacetyl)piperidin-4-yl)oxy)phenyl)pyridin-2-yl)carbamoyl)cyclopropane-1-carboxylic acid] | 740 | > 1000 |
| N#Cc1cc(-c2ccnc(NC(=O)[C@@H]3C[C@@H]3CO)c2)ccc1O[C@H]1CCN(C(=O)CO)C[C@H]1F [Example 74, (1,2-cis)-N-(4-(3-Cyano-4-(((3R,4S)-3-fluoro-1-(2-hydroxyacetyl)piperidin-4-yl)oxy)phenyl)pyridin-2-yl)-2-(hydroxymethyl)cyclopropane-1-carboxamide] | 99.3 | 145 |
| Cc1n[nH]c(C(=O)N2CC[C@H](Oc3ccc(-c4ccnc(NC(=O)C5CC5C)c4)cc3C#N)[C@H](F)C2)n1 (stereo partly drawn) [Example 75, N-(4-(3-Cyano-4-(((3R,4S)-3-fluoro-1-(3-methyl-1H-1,2,4-triazole-5-carbonyl)piperidin-4-yl)oxy)phenyl)pyridin-2-yl)-2-methylcyclopropane-1-carboxamide] | 6.1 | 7.1 |
| N#Cc1cc(-c2ccnc(NC(=O)C3CC3c3nc[nH]n3)c2)ccc1O[C@H]1CCN(C(=O)CO)C[C@H]1F (stereo partly drawn) [Example 76, N-(4-(3-Cyano-4-(((3R,4S)-3-fluoro-1-(2-hydroxyacetyl)piperidin-4-yl)oxy)phenyl)pyridin-2-yl)-2-(1H-1,2,4-triazol-3-yl)cyclopropane-1-carboxamide] | 256 | 357 |
